Measurements as given in patent US7750145B2, “1-substituted-3-β-D-glucopyranosylated nitrogenous hetero-cyclic compounds and medicines containing the same” (Kissei Pharmaceutical Co., Ltd., priority 2004, dated 2010).

System: SD rats
Assay: Assay for the effect on urinary glucose excretion
Assay type: in vivo, rat
Settings: overnight fasted male SD rats, oral 1 mg/kg, urine collected for 24 hours
Text: Assay for the Effect on Urinary Glucose Excretion
As experimental animals, overnight fasted SD rats (CHARLES RIVER LABORATORIES JAPAN. Inc., Crj:CD(SD)IGS, male, 7-8 weeks of age, 180-300 g) were used. The test compound was suspended with 0.5% methylcellulose solution and the suspension was used for administration. On the day before drug administration, the rats were transferred in metabolic cages and fasted from the evening. Throughout the study, the rats were given water ad libitum. The test compound was orally administered at the dose of 1 mg/kg and urine collection was performed for 24 hours after the compound administration. The rats were fed ad libitum from 4 hours after the compound administration. The volume of urine collected was measured and a part of urine was used as a sample for glucose concentration measurement. The samples were diluted as appropriate and the glucose concentrations were measured with Glucose CII-Test WAKO (Wako Pure Chemical Industries, Ltd.) and the amount of urinary glucose excretion per 200 g of body weight was calculated.

SMILES	Amount of urinary excretion of glucose in 24 hours [mg/200 g body weight]
CCc1ccc(Cn2cc([C@@H]3O[C@H](CO)[C@@H](O)[C@H](O)[C@H]3O)c3c(C)cccc32)cc1 [Example 1, 1-(4-Ethylbenzyl)-3-(β-D-glucopyranosyl)-4-methyl-1H-indole]	182
COc1ccc(Cn2cc([C@@H]3O[C@H](CO)[C@@H](O)[C@H](O)[C@H]3O)c3c(C)cccc32)cc1 [Example 2]	27
CCc1ccc(Cn2cc([C@@H]3O[C@H](CO)[C@@H](O)[C@H](O)[C@H]3O)c3ccccc32)cc1 [Example 3]	15
CCc1ccc(Cn2cc([C@@H]3O[C@H](CO)[C@@H](O)[C@H](O)[C@H]3O)c3cccc(C)c32)cc1 [Example 5]	76
CCc1ccc(Cn2cc([C@@H]3O[C@H](CO)[C@@H](O)[C@H](O)[C@H]3O)c3cc(C)ccc32)cc1 [Example 7]	122
Cc1ccc2c(c1)c([C@@H]1O[C@H](CO)[C@@H](O)[C@H](O)[C@H]1O)cn2Cc1ccc(OC(C)C)cc1 [Example 11]	33
COc1ccc(Cn2cc([C@@H]3O[C@H](CO)[C@@H](O)[C@H](O)[C@H]3O)c3c(C)cccc32)c(F)c1 [Example 28]	36
CCc1ccc(Cn2cc([C@@H]3O[C@H](CO)[C@@H](O)[C@H](O)[C@H]3O)c3cccc(F)c32)cc1 [Example 61]	98
COc1ccc(Cn2cc([C@@H]3O[C@H](CO)[C@@H](O)[C@H](O)[C@H]3O)c3cccc(F)c32)cc1 [Example 63]	213
OC[C@H]1O[C@@H](c2cn(Cc3ccc(OC(F)F)cc3)c3c(F)cccc23)[C@H](O)[C@@H](O)[C@@H]1O [Example 66]	24
OCCc1ccc(Cn2cc([C@@H]3O[C@H](CO)[C@@H](O)[C@H](O)[C@H]3O)c3cccc(F)c32)cc1 [Example 67]	17
Cc1ccc(Cn2cc([C@@H]3O[C@H](CO)[C@@H](O)[C@H](O)[C@H]3O)c3cccc(Cl)c32)cc1 [Example 70]	173
CCc1ccc(Cn2cc([C@@H]3O[C@H](CO)[C@@H](O)[C@H](O)[C@H]3O)c3cccc(Cl)c32)cc1 [Example 71]	517
COc1ccc(Cn2cc([C@@H]3O[C@H](CO)[C@@H](O)[C@H](O)[C@H]3O)c3cccc(Cl)c32)cc1 [Example 73]	532
COc1ccc(Cn2cc([C@@H]3O[C@H](CO)[C@@H](O)[C@H](O)[C@H]3O)c3cccc(Cl)c32)c(F)c1 [Example 74]	629
CCOc1ccc(Cn2cc([C@@H]3O[C@H](CO)[C@@H](O)[C@H](O)[C@H]3O)c3cccc(Cl)c32)c(F)c1 [Example 75]	18
OCCc1ccc(Cn2cc([C@@H]3O[C@H](CO)[C@@H](O)[C@H](O)[C@H]3O)c3cccc(Cl)c32)cc1 [Example 78]	54
Cc1ccc(Cn2cc([C@@H]3O[C@H](CO)[C@@H](O)[C@H](O)[C@H]3O)c3cc(C)cc(F)c32)cc1 [Example 93]	275
CCc1ccc(Cn2cc([C@@H]3O[C@H](CO)[C@@H](O)[C@H](O)[C@H]3O)c3cc(C)cc(F)c32)cc1 [Example 94]	945
Cc1cc(F)c2c(c1)c([C@@H]1O[C@H](CO)[C@@H](O)[C@H](O)[C@H]1O)cn2Cc1ccc(O)cc1 [Example 95]	40

SMILES	Amount of urinary excretion of glucose in 24 hours [mg/200 g body weight]
COc1ccc(Cn2cc([C@@H]3O[C@H](CO)[C@@H](O)[C@H](O)[C@H]3O)c3cc(C)cc(F)c32)cc1 [Example 96]	588
COc1ccc(Cn2cc([C@@H]3O[C@H](CO)[C@@H](O)[C@H](O)[C@H]3O)c3cc(C)cc(F)c32)c(F)c1 [Example 97]	507
Cc1cc(F)c2c(c1)c([C@@H]1O[C@H](CO)[C@@H](O)[C@H](O)[C@H]1O)cn2Cc1ccc(CCO)cc1 [Example 99]	47
Cc1ccc(Cn2cc([C@@H]3O[C@H](CO)[C@@H](O)[C@H](O)[C@H]3O)c3cc(C)cc(Cl)c32)cc1 [Example 102]	933
Cc1cc(Cl)c2c(c1)c([C@@H]1O[C@H](CO)[C@@H](O)[C@H](O)[C@H]1O)cn2Cc1ccc(O)cc1 [Example 104]	349
COc1ccc(Cn2cc([C@@H]3O[C@H](CO)[C@@H](O)[C@H](O)[C@H]3O)c3cc(C)cc(Cl)c32)cc1 [Example 105]	1693
COc1ccc(Cn2cc([C@@H]3O[C@H](CO)[C@@H](O)[C@H](O)[C@H]3O)c3cc(C)cc(Cl)c32)c(F)c1 [Example 106]	1910
Cc1cc(Cl)c2c(c1)c([C@@H]1O[C@H](CO)[C@@H](O)[C@H](O)[C@H]1O)cn2Cc1ccc(OC(F)F)cc1 [Example 108]	1229
COc1ccc(Cn2cc([C@@H]3O[C@H](CO)[C@@H](O)[C@H](O)[C@H]3O)c3cc(C)cc(C)c32)cc1 [Example 114]	520
CCc1ccc(Cn2cc([C@@H]3O[C@H](CO)[C@@H](O)[C@H](O)[C@H]3O)c3c(C)ccc(F)c32)cc1 [Example 116]	24
COc1ccc(Cn2cc([C@@H]3O[C@H](CO)[C@@H](O)[C@H](O)[C@H]3O)c3c(C)ccc(F)c32)cc1 [Example 118]	12
COc1ccc(Cn2cc([C@@H]3O[C@H](CO)[C@@H](O)[C@H](O)[C@H]3O)c3c(C)ccc(Cl)c32)cc1 [Example 124]	37
COc1ccc(Cn2cc([C@@H]3O[C@H](CO)[C@@H](O)[C@H](O)[C@H]3O)c3c(C)ccc(Cl)c32)c(F)c1 [Example 125]	50
CCOc1ccc(Cn2cc([C@@H]3O[C@H](CO)[C@@H](O)[C@H](O)[C@H]3O)c3cccc(F)c32)cc1 [Example 144]	251
CC(C)Oc1ccc(Cn2cc([C@@H]3O[C@H](CO)[C@@H](O)[C@H](O)[C@H]3O)c3cccc(F)c32)cc1 [Example 145]	11
CCOc1ccc(Cn2cc([C@@H]3O[C@H](CO)[C@@H](O)[C@H](O)[C@H]3O)c3cccc(Cl)c32)cc1 [Example 146]	733
CC(C)Oc1ccc(Cn2cc([C@@H]3O[C@H](CO)[C@@H](O)[C@H](O)[C@H]3O)c3cccc(Cl)c32)cc1 [Example 147]	295
CCOc1ccc(Cn2cc([C@@H]3O[C@H](CO)[C@@H](O)[C@H](O)[C@H]3O)c3cc(C)cc(F)c32)cc1 [Example 156]	784
CCOc1ccc(Cn2cc([C@@H]3O[C@H](CO)[C@@H](O)[C@H](O)[C@H]3O)c3cc(C)cc(Cl)c32)cc1 [Example 158]	1708
